Test results as given in ChEMBL document CHEMBL1629662, “Antimicrobial activity of prulifloxacin tested against a worldwide collection of gastroenteritis-producing pathogens, including those causing traveler's diarrhea” (2009).
In brackets after ≈: the same amount, converted by molar mass.

What was measured:
Shigella boydii [1] = assay: Antibacterial activity against Shigella boydii by broth microdilution method; assay type: functional
Campylobacter jejuni [2] = assay: Antibacterial activity against Campylobacter jejuni assessed as percent resistant isolates by broth microdilution method; assay type: functional; conditions: pooled result: one value given for 2 cell lines, strains, targets or settings
Shigella boydii [3] = assay: Antibacterial activity against Shigella boydii assessed as percent susceptible isolates by broth microdilution method; assay type: functional; conditions: pooled result: one value given for 3 cell lines, strains, targets or settings
Campylobacter jejuni [4] = assay: Antibacterial activity against Campylobacter jejuni assessed as percent susceptible isolates by broth microdilution method; assay type: functional; conditions: pooled result: one value given for 2 cell lines, strains, targets or settings
Aeromonas sobria [5] = assay: Antibacterial activity against Aeromonas sobria by broth microdilution method; assay type: functional
Aeromonas veronii [6] = assay: Antibacterial activity against Aeromonas veronii assessed as percent susceptible isolates by broth microdilution method; assay type: functional
Salmonella enteritidis [7] = assay: Antibacterial activity against Salmonella enterica serovar Enteritidis assessed as percent susceptible isolates by broth microdilution method; assay type: functional, Salmonella enterica subsp. enterica serovar Enteritidis; conditions: pooled result: one value given for 5 cell lines, strains, targets or settings
Aeromonas hydrophila [8] = assay: Antibacterial activity against Aeromonas hydrophila assessed as percent susceptible isolates by broth microdilution method; assay type: functional
Escherichia coli [9] = assay: Antibacterial activity against Escherichia coli by broth microdilution method; assay type: functional
Salmonella typhi = assay: Antibacterial activity against Salmonella enterica serovar Typhi assessed as percent susceptible isolates by broth microdilution method; assay type: functional, Salmonella enterica subsp. enterica serovar Typhi
Vibrio parahaemolyticus = assay: Antibacterial activity against Vibrio parahaemolyticus by broth microdilution method; assay type: functional
Campylobacter jejuni [10] = assay: Antibacterial activity against Campylobacter jejuni by broth microdilution method; assay type: functional
Vibrio alginolyticus = assay: Antibacterial activity against Vibrio alginolyticus by broth microdilution method; assay type: functional
Aeromonas caviae [11] = assay: Antibacterial activity against Aeromonas caviae by broth microdilution method; assay type: functional
Salmonella enteritidis [12] = assay: Antibacterial activity against Salmonella enterica serovar Enteritidis by broth microdilution method; assay type: functional, Salmonella enterica subsp. enterica serovar Enteritidis
[13] = tested on: Yersinia pseudotuberculosis; assay: Antibacterial activity against Yersinia pseudotuberculosis assessed as percent susceptible isolates by broth microdilution method; assay type: functional
Escherichia coli [14] = assay: Antibacterial activity against Escherichia coli assessed as percent resistant isolates by broth microdilution method; assay type: functional
Vibrio vulnificus = assay: Antibacterial activity against Vibrio vulnificus by broth microdilution method; assay type: functional
Salmonella typhimurium [15] = assay: Antibacterial activity against Salmonella enterica serovar Typhimurium assessed as percent resistant isolates by broth microdilution method; assay type: functional, Salmonella enterica subsp. enterica serovar Typhimurium; conditions: pooled result: one value given for 8 cell lines, strains, targets or settings
[16] = tested on: Yersinia pseudotuberculosis; assay: Antibacterial activity against Yersinia pseudotuberculosis by broth microdilution method; assay type: functional
Campylobacter coli = assay: Antibacterial activity against Campylobacter coli by broth microdilution method; assay type: functional
Yersinia enterocolitica [17] = assay: Antibacterial activity against Yersinia enterocolitica assessed as percent susceptible isolates by broth microdilution method; assay type: functional
Shigella flexneri = assay: Antibacterial activity against Shigella flexneri by broth microdilution method; assay type: functional
Salmonella paratyphi [18] = assay: Antibacterial activity against Salmonella enterica serovar Paratyphi by broth microdilution method; assay type: functional, Salmonella enterica subsp. enterica serovar Paratyphi A
Aeromonas veronii [19] = assay: Antibacterial activity against Aeromonas veronii assessed as percent resistant isolates by broth microdilution method; assay type: functional
Vibrio fluvialis = assay: Antibacterial activity against Vibrio fluvialis by broth microdilution method; assay type: functional
Aeromonas hydrophila [20] = assay: Antibacterial activity against Aeromonas hydrophila by broth microdilution method; assay type: functional
Plesiomonas shigelloides [21] = assay: Antibacterial activity against Plesiomonas shigelloides by broth microdilution method; assay type: functional
Yersinia enterocolitica [22] = assay: Antibacterial activity against Yersinia enterocolitica assessed as percent resistant isolates by broth microdilution method; assay type: functional
Plesiomonas shigelloides [23] = assay: Antibacterial activity against Plesiomonas shigelloides assessed as percent resistant isolates by broth microdilution method; assay type: functional
Aeromonas sobria [24] = assay: Antibacterial activity against Aeromonas sobria assessed as percent susceptible isolates by broth microdilution method; assay type: functional
Vibrio cholerae = assay: Antibacterial activity against Vibrio cholerae by broth microdilution method; assay type: functional
Salmonella typhimurium [25] = assay: Antibacterial activity against Salmonella enterica serovar Typhimurium by broth microdilution method; assay type: functional, Salmonella enterica subsp. enterica serovar Typhimurium
Vibrio sp. = assay: Antibacterial activity against Vibrio sp. by broth microdilution method; assay type: functional
Shigella dysenteriae [26] = assay: Antibacterial activity against Shigella dysenteriae assessed as percent susceptible isolates by broth microdilution method; assay type: functional
Aeromonas sobria [27] = assay: Antibacterial activity against Aeromonas sobria assessed as percent resistant isolates by broth microdilution method; assay type: functional
Shigella sonnei [28] = assay: Antibacterial activity against Shigella sonnei by broth microdilution method; assay type: functional
Aeromonas caviae [29] = assay: Antibacterial activity against Aeromonas caviae assessed as percent resistant isolates by broth microdilution method; assay type: functional
Salmonella paratyphi [30] = assay: Antibacterial activity against Salmonella enterica serovar Paratyphi assessed as percent susceptible isolates by broth microdilution method; assay type: functional, Salmonella enterica subsp. enterica serovar Paratyphi A
Shigella sonnei [31] = assay: Antibacterial activity against Shigella sonnei assessed as percent resistant isolates by broth microdilution method; assay type: functional; conditions: pooled result: one value given for 4 cell lines, strains, targets or settings
Plesiomonas shigelloides [32] = assay: Antibacterial activity against Plesiomonas shigelloides assessed as percent susceptible isolates by broth microdilution method; assay type: functional
Aeromonas hydrophila [33] = assay: Antibacterial activity against Aeromonas hydrophila assessed as percent resistant isolates by broth microdilution method; assay type: functional
Shigella dysenteriae [34] = assay: Antibacterial activity against Shigella dysenteriae by broth microdilution method; assay type: functional
Escherichia coli [35] = assay: Antibacterial activity against Escherichia coli assessed as percent susceptible isolates by broth microdilution method; assay type: functional
Aeromonas caviae [36] = assay: Antibacterial activity against Aeromonas caviae assessed as percent susceptible isolates by broth microdilution method; assay type: functional
Aeromonas veronii [37] = assay: Antibacterial activity against Aeromonas veronii by broth microdilution method; assay type: functional
Yersinia enterocolitica [38] = assay: Antibacterial activity against Yersinia enterocolitica by broth microdilution method; assay type: functional

O=C(O)c1cn(C2CC2)c2cc(N3CCNCC3)c(F)cc2c1=O [CIPROFLOXACIN] gave an MIC50 (Shigella boydii [1]) of 8 ng/mL (≈ 0.0241 µM), an MIC90 (Shigella boydii [1]) of 0.016 µg/mL (≈ 0.0483 µM) and an Activity (Campylobacter jejuni [2]) of 16.5%. The Activity (Shigella boydii [3]) was 100%, the Activity (Campylobacter jejuni [4]) was 82.6% and the MIC50 (Aeromonas sobria [5]) was 4 ng/mL (≈ 0.0121 µM). For the same compound, the MIC90 (Aeromonas sobria [5]) was 0.06 µg/mL (≈ 0.181 µM), the Activity (Aeromonas veronii [6]) was 98% and the Activity (Salmonella enteritidis [7]) was 100%. The Activity (Aeromonas hydrophila [8]) was 98%, the MIC50 (Escherichia coli [9]) was 8 ng/mL (≈ 0.0241 µM) and the MIC90 (Escherichia coli [9]) was 0.016 µg/mL (≈ 0.0483 µM). The Activity (Salmonella typhi) was 100%, the MIC50 (Vibrio parahaemolyticus) was 0.016 µg/mL (≈ 0.0483 µM) and the MIC90 (Vibrio parahaemolyticus) was 0.06 µg/mL (≈ 0.181 µM). For the same compound, the MIC50 (Campylobacter jejuni [10]) was 0.06 µg/mL (≈ 0.181 µM), the MIC90 (Campylobacter jejuni [10]) was > 2 µg/mL and the MIC50 (Vibrio alginolyticus) was 0.016 µg/mL (≈ 0.0483 µM). The MIC90 (Vibrio alginolyticus) was 0.06 µg/mL (≈ 0.181 µM), the MIC50 (Aeromonas caviae [11]) was 4 ng/mL (≈ 0.0121 µM) and the MIC90 (Aeromonas caviae [11]) was 0.06 µg/mL (≈ 0.181 µM). It also gave an MIC50 (Salmonella enteritidis [12]) of 8 ng/mL (≈ 0.0241 µM), an MIC90 (Salmonella enteritidis [12]) of 0.12 µg/mL (≈ 0.362 µM) and an Activity [13] of 100%. For the same compound, the Activity (Escherichia coli [14]) was 3%, the MIC50 (Vibrio vulnificus) was 0.016 µg/mL (≈ 0.0483 µM) and the MIC90 (Vibrio vulnificus) was 0.06 µg/mL (≈ 0.181 µM). For the same compound, the Activity (Salmonella typhimurium [15]) was 0%, the MIC50 [16] was 0.016 µg/mL (≈ 0.0483 µM) and the MIC90 [16] was 0.03 µg/mL (≈ 0.0905 µM). The MIC50 (Campylobacter coli) was 0.06 µg/mL (≈ 0.181 µM), the MIC90 (Campylobacter coli) was > 2 µg/mL and the Activity (Yersinia enterocolitica [17]) was 100%. For the same compound, the MIC50 (Shigella flexneri) was 8 ng/mL (≈ 0.0241 µM), the MIC90 (Shigella flexneri) was 0.016 µg/mL (≈ 0.0483 µM) and the MIC (Salmonella paratyphi [18]) was 4 ng/mL (≈ 0.0121 µM). The Activity (Aeromonas veronii [19]) was 2%, the MIC50 (Vibrio fluvialis) was 0.016 µg/mL (≈ 0.0483 µM) and the MIC90 (Vibrio fluvialis) was 0.06 µg/mL (≈ 0.181 µM). The MIC50 (Aeromonas hydrophila [20]) was 4 ng/mL (≈ 0.0121 µM), the MIC90 (Aeromonas hydrophila [20]) was 0.06 µg/mL (≈ 0.181 µM) and the MIC50 (Plesiomonas shigelloides [21]) was 4 ng/mL (≈ 0.0121 µM). It also gave an Activity (Yersinia enterocolitica [22]) of 0%, an Activity (Plesiomonas shigelloides [23]) of 0% and an Activity (Aeromonas sobria [24]) of 98%. For the same compound, the MIC50 (Vibrio cholerae) was 0.016 µg/mL (≈ 0.0483 µM), the MIC90 (Vibrio cholerae) was 0.06 µg/mL (≈ 0.181 µM) and the MIC50 (Salmonella typhimurium [25]) was 8 ng/mL (≈ 0.0241 µM). For the same compound, the MIC90 (Salmonella typhimurium [25]) was 0.12 µg/mL (≈ 0.362 µM), the MIC50 (Vibrio sp.) was 0.016 µg/mL (≈ 0.0483 µM) and the MIC90 (Vibrio sp.) was 0.06 µg/mL (≈ 0.181 µM). The Activity (Shigella dysenteriae [26]) was 100%, the Activity (Aeromonas sobria [27]) was 2% and the MIC50 (Shigella sonnei [28]) was 8 ng/mL (≈ 0.0241 µM). For the same compound, the MIC90 (Shigella sonnei [28]) was 0.016 µg/mL (≈ 0.0483 µM), the Activity (Aeromonas caviae [29]) was 2% and the Activity (Salmonella paratyphi [30]) was 100%. It also gave an Activity (Shigella sonnei [31]) of 0%, an Activity (Plesiomonas shigelloides [32]) of 100% and an Activity (Aeromonas hydrophila [33]) of 2%. For the same compound, the MIC50 (Shigella dysenteriae [34]) was 8 ng/mL (≈ 0.0241 µM), the MIC90 (Shigella dysenteriae [34]) was 0.016 µg/mL (≈ 0.0483 µM) and the Activity (Escherichia coli [35]) was 97%. The Activity (Aeromonas caviae [36]) was 98%, the MIC50 (Aeromonas veronii [37]) was 4 ng/mL (≈ 0.0121 µM) and the MIC90 (Aeromonas veronii [37]) was 0.06 µg/mL (≈ 0.181 µM). For the same compound, the MIC50 (Yersinia enterocolitica [38]) was 0.016 µg/mL (≈ 0.0483 µM) and the MIC90 (Yersinia enterocolitica [38]) was 0.03 µg/mL (≈ 0.0905 µM).
